Test results published in US20250230155A1 (Vanderbilt University, priority 2021, published 2025).

Target: T1, human mAChR M4 (Homo sapiens, UniProt P08173)
T1 construct: expressed in transfected cells
T1 sequence (P08173 1-479): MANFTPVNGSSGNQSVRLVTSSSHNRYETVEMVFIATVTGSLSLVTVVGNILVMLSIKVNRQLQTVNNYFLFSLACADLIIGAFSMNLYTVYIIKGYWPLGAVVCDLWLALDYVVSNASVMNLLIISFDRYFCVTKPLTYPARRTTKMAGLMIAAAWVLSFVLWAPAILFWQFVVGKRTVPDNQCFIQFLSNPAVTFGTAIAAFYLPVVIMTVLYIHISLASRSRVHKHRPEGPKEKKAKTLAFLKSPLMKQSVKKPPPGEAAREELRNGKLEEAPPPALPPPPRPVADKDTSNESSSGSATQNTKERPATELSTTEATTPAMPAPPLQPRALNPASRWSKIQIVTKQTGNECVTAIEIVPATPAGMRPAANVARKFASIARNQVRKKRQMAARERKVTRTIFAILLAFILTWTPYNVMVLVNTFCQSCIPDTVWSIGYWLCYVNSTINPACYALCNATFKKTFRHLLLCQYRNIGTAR
Assay: mAChR M4 cell-based functional assay (calcium mobilization, CHO-K1 hM4-Gqi5 cells)
Settings: for Emax at 30 µM: CHO-K1, % ACh maximum at 30 μM, human M4; for EC50: positive allosteric modulator activity, increase in the EC20 acetylcholine response, CHO-K1 hM4-Gqi5 cells, read-out: Human M4 EC50
In short: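 CHO-K1 cells stably expressing human M4 with chimeric Gqi5, loaded with Fluo-4 AM; compounds given as 11-point 1:3 curves and calcium flux read on FDSS at 1 Hz. Acetylcholine EC20 added at 144 s, EC80 at 230 s; agonist, PAM (EC20 potentiation) and antagonist (EC80 inhibition) EC50/Emax from four-parameter fits.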

Compound	Emax at 30 µM [%]	EC50 [nM]
Cc1cc(C(=O)N2Cc3cccnc3C2)nnc1N1CCc2ncc(N3CCCn4nccc43)cc2C1 [Example 513, (5,7-dihydro-6H-pyrrolo[3,4-b]pyridin-6-yl)(6-(3-(6,7-dihydropyrazolo[1,5-a]pyrimidin-4(5H)-yl)-7,8-dihydro-1,6-naphthyridin-6(5H)-yl)-5-methylpyridazin-3-yl)methanone]	90	51
Cc1cc(C(=O)N2CCN(C)CC2)nnc1N1CCc2ncc(N3CCCn4nccc43)cc2C1 [Example 514, (6-(3-(6,7-dihydropyrazolo[1,5-a]pyrimidin-4(5H)-yl)-7,8-dihydro-1,6-naphthyridin-6(5H)-yl)-5-methylpyridazin-3-yl)(4-methylpiperazin-1-yl)methanone]	103	635
Cc1cc(C(=O)N2CCOCC2)nnc1N1CCc2ncc(N3CCCn4nccc43)cc2C1 [Example 515, (6-(3-(6,7-dihydropyrazolo[1,5-a]pyrimidin-4(5H)-yl)-7,8-dihydro-1,6-naphthyridin-6(5H)-yl)-5-methylpyridazin-3-yl)(morpholino)methanone]	107	197
Cc1cc(C(=O)NCc2cncs2)nnc1N1CCc2ncc(-c3ccnn3C)cc2C1 [Example 516, 5-methyl-6-(3-(1-methyl-1H-pyrazol-5-yl)-7,8-dihydro-1,6-naphthyridin-6(5H)-yl)-N-(thiazol-5-ylmethyl)pyridazine-3-carboxamide]	102	31
Cc1cc(C(=O)N2CC(c3ccncc3)C2)nnc1N1CCc2ncc(N3CCCn4nccc43)cc2C1 [Example 517, (6-(3-(6,7-dihydropyrazolo[1,5-a]pyrimidin-4(5H)-yl)-7,8-dihydro-1,6-naphthyridin-6(5H)-yl)-5-methylpyridazin-3-yl)(3-(pyridin-4-yl)azetidin-1-yl)methanone]	76	12
Cc1cc(C(=O)NC2CN(CC(F)(F)F)C2)nnc1N1CCc2ncc(N3CCCn4nccc43)cc2C1 [Example 520, 6-(3-(6,7-dihydropyrazolo[1,5-a]pyrimidin-4(5H)-yl)-7,8-dihydro-1,6-naphthyridin-6(5H)-yl)-5-methyl-N-(1-(2,2,2-trifluoroethyl)azetidin-3-yl)pyridazine-3-carboxamide]	104	43
Cc1cc(C(=O)NC2(C#N)CC2)nnc1N1CCc2ncc(C(F)(F)F)cc2C1 [Example 523, N-(1-cyanocyclopropyl)-5-methyl-6-(3-(trifluoromethyl)-7,8-dihydro-1,6-naphthyridin-6(5H)-yl)pyridazine-3-carboxamide]	109	74
Cc1cc(C(=O)NC2(C#N)CC2)nnc1N1CCc2ncc(N3CCCn4nccc43)cc2C1 [Example 525, N-(1-cyanocyclopropyl)-6-(3-(6,7-dihydropyrazolo[1,5-a]pyrimidin-4(5H)-yl)-7,8-dihydro-1,6-naphthyridin-6(5H)-yl)-5-methylpyridazine-3-carboxamide]	82	11
Cc1cc(C(=O)N2CC(Cl)C2)nnc1N1CCc2ncc(N3CCCn4nccc43)cc2C1 [Example 527, (3-chloroazetidin-1-yl)(6-(3-(6,7-dihydropyrazolo[1,5-a]pyrimidin-4(5H)-yl)-7,8-dihydro-1,6-naphthyridin-6(5H)-yl)-5-methylpyridazin-3-yl)methanone]	129	16
Cc1cc(C(=O)N2CCCC2(C)C)nnc1N1CCc2ncc(N3CCCn4nccc43)cc2C1 [Example 529, (6-(3-(6,7-dihydropyrazolo[1,5-a]pyrimidin-4(5H)-yl)-7,8-dihydro-1,6-naphthyridin-6(5/I)-yl)-5-methylpyridazin-3-yl)(2,2-dimethylpyrrolidin-1-yl)methanone]	68	570
Cc1cc(C(=O)N2CCCC2)nnc1N1CCc2ncc(-n3cccn3)cc2C1 [Example 530, (6-(3-(1H-pyrazol-1-yl)-7,8-dihydro-1,6-naphthyridin-6(5H)-yl)-5-methylpyridazin-3-yl)(pyrrolidin-1-yl)methanone]	81	3030

Continued by falling EC50, values first:

Emax at 30 µM [%]	EC50 [nM]	Compound
109	168	Cc1cc(C(=O)N2CC(C(F)F)C2)nnc1N1CCc2ncc(C(F)(F)F)cc2C1 [Example 522, (3-(difluoromethyl)azetidin-1-yl)(5-methyl-6-(3-(trifluoromethyl)-7,8-dihydro-1,6-naphthyridin-6(5H)-yl)pyridazin-3-yl)methanone]
99	98	Cc1cc(C(=O)N2CCC(c3ccncc3)C2)nnc1N1CCc2ncc(N3CCCn4nccc43)cc2C1 (centres unmarked) [Example 521, (6-(3-(6,7-dihydropyrazolo[1,5-a]pyrimidin-4(5H)-yl)-7,8-dihydro-1,6-naphthyridin-6(5H)-yl)-5-methylpyridazin-3-yl)(3-(pyridin-4-yl)pyrrolidin-1-yl)methanone]
102	53	Cc1cc(C(=O)N2CC(C(C)(C)O)C2)nnc1N1CCc2ncc(N3CCCn4nccc43)cc2C1 [Example 528, (6-(3-(6,7-dihydropyrazolo[1,5-a]pyrimidin-4(5H)-yl)-7,8-dihydro-1,6-naphthyridin-6(5H)-yl)-5-methylpyridazin-3-yl)(3-(2-hydroxypropan-2-yl)azetidin-1-yl)methanone]
102	32	Cc1cc(C(=O)N2CC(N(C)C)C2)nnc1N1CCc2ncc(N3CCCn4nccc43)cc2C1 [Example 518, (6-(3-(6,7-dihydropyrazolo[1,5-a]pyrimidin-4(5H)-yl)-7,8-dihydro-1,6-naphthyridin-6(5H)-yl)-5-methylpyridazin-3-yl)(3-(dimethylamino)azetidin-1-yl)methanone]
95	19	Cc1cc(C(=O)N2Cc3ccncc3C2)nnc1N1CCc2ncc(N3CCCn4nccc43)cc2C1 [Example 512, (1,3-dihydro-2H-pyrrolo[3,4-c]pyridin-2-yl)(6-(3-(6,7-dihydropyrazolo[1,5-a]pyrimidin-4(5H)-yl)-7,8-dihydro-1,6-naphthyridin-6(5H)-yl)-5-methylpyridazin-3-yl)methanone]
93	18	Cc1cc(C(=O)N2CC(C(F)F)C2)nnc1N1CCc2ncc(N3CCCn4nccc43)cc2C1 [Example 524, (3-(difluoromethyl)azetidin-1-yl)(6-(3-(6,7-dihydropyrazolo[1,5-a]pyrimidin-4(5H)-yl)-7,8-dihydro-1,6-naphthyridin-6(5H)-yl)-5-methylpyridazin-3-yl)methanone]
116	17	Cc1cc(C(=O)N2CC(c3cccnc3)C2)nnc1N1CCc2ncc(N3CCCn4nccc43)cc2C1 [Example 526, (6-(3-(6,7-dihydropyrazolo[1,5-a]pyrimidin-4(5H)-yl)-7,8-dihydro-1,6-naphthyridin-6(5H)-yl)-5-methylpyridazin-3-yl)(3-(pyridin-3-yl)azetidin-1-yl)methanone]
80	14	Cc1cc(C(=O)N2CC(C)(C#N)C2)nnc1N1CCc2ncc(N3CCCn4nccc43)cc2C1 [Example 519, 1-(6-(3-(6,7-dihydropyrazolo[1,5-a]pyrimidin-4(5H)-yl)-7,8-dihydro-1,6-naphthyridin-6(5H)-yl)-5-methylpyridazine-3-carbonyl)-3-methylazetidine-3-carbonitrile]
